Values after ≈ are worked out from the molar mass of the structure shown.
Columns and labels:
RAW264.7 [1] = assay: Inhibition of LPS-induced NO production in mouse RAW264.7 cells at 100 ug/ml cotreated with 1 ug/ml LPS for 16 hrs by Griess reagent method; assay type: functional
RAW264.7 [2] = assay: Toxicity in mouse RAW264.7 cells assessed as effect on NO production by Griess method; assay type: cell-based
RAW264.7 [3] = assay: Inhibition of LPS-induced TNF-alpha production in mouse RAW264.7 cells pretreated with compound for 1 hr followed by addition of 1 ug/ml LPS for 6 hrs by ELISA; assay type: functional, cell-based
RAW264.7 [4] = assay: Inhibition of LPS-induced TNF-alpha mRNA level in mouse RAW264.7 cells in presence of 1 ug/ml LPS for 6 hrs by qRT-PCR analysis; assay type: functional, cell-based
RAW264.7 [5] = assay: Inhibition of LPS-induced IL-6 mRNA level in mouse RAW264.7 cells in presence of 1 ug/ml LPS for 6 hrs by qRT-PCR analysis; assay type: functional, cell-based
[6] = Cytotoxicity against mouse RAW264.7 cells assessed as decrease in cell viability pretreated at 50 uM for 1 hr followed by addition of LPS incubated for 24 hrs by MTT assay; assay type: cell-based; details: read-out: INH
RAW264.7 [7] = assay: Toxicity in mouse RAW264.7 cells assessed as effect on TNF-alpha mRNA level by qRT-PCR analysis; assay type: cell-based
RAW264.7 [8] = assay: Inhibition of LPS-induced IL-1beta mRNA level in mouse RAW264.7 cells in presence of 1 ug/ml LPS for 6 hrs by qRT-PCR analysis; assay type: functional, cell-based
RAW264.7 [9] = assay: Inhibition of LPS-induced TNF-alpha production in mouse RAW264.7 cells pretreated with compound at 10 uM for 1 hr followed by addition of 1 ug/ml LPS for 6 hrs by ELISA; assay type: functional
RAW264.7 [10] = assay: Inhibition of LPS-induced TNF-alpha production in mouse RAW264.7 cells pretreated with compound at 100 uM for 1 hr followed by addition of 1 ug/ml LPS for 6 hrs by ELISA; assay type: functional
Rattus norvegicus = assay: Inhibition of LPS-induced TNF-alpha production in albino Wistar rat plasma pretreated with compound at 50 mg/kg, po followed by administration of 0.3 mg/kg, ip LPS measured after 90 mins by ELISA; assay type: functional

IC50 (RAW264.7 [3]) [µg/mL] | SMILES | inhibition (INH) (RAW264.7 [1]) [%] | Activity (RAW264.7 [2]) | inhibition (RAW264.7 [4]) | inhibition (RAW264.7 [5]) | cytotoxicity at 24 h, 50 µM [6] [%] | Activity (RAW264.7 [7]) | inhibition (RAW264.7 [8]) | inhibition (INH) (RAW264.7 [9]) [%] | inhibition (INH) (RAW264.7 [10]) [%] | inhibition (INH) (Rattus norvegicus) [%]
4.5 (≈ 29.2 µM) | O=C1NCC(=O)N2CCC[C@@H]12 [CYCLO(PROLYLGLYCYL)] | 39.7 | Non-toxic | Dose-dependent effect | Dose-dependent effect | 3 | Non-toxic | Dose-dependent effect | – | – | –
14.2 (≈ 54.6 µM) | O=C1N[C@@H](Cc2ccccc2)C(=O)N2C[C@H](O)C[C@@H]12 | 43.5 | Non-toxic | Dose-dependent effect | Dose-dependent effect | 3 | Non-toxic | Dose-dependent effect | – | – | –
– | C[C@]12C=CC(=O)C=C1CC[C@@H]1[C@@H]2[C@@H](O)C[C@@]2(C)[C@H]1CC[C@]2(O)C(=O)CO [PREDNISOLONE] | – | – | – | – | – | – | – | 42.8 | – | –
– | O=C1N[C@@H](Cc2ccccc2)C(=O)N2CCC[C@@H]12 | – | Non-toxic | Dose-dependent effect | Dose-dependent effect | 3 | Non-toxic | Dose-dependent effect | – | 45 | –
– | CC(C)C[C@@H]1NC(=O)[C@@H]2C[C@@H](O)CN2C1=O | – | Non-toxic | Dose-dependent effect | Dose-dependent effect | 3 | Non-toxic | Dose-dependent effect | – | 49.3 | 51

From ChEMBL document CHEMBL3739388, “Attenuation of TNF-α secretion by L-proline-based cyclic dipeptides produced by culture broth of Pseudomonas aeruginosa” (Bioorg Med Chem Lett, 2015)
